Assay results published in BindingDB's records for doi:10.1016/j.bmcl.2007.08.017 (Johnson & Johnson Pharmaceutical Research and Development, 2007).

assay: Binding affinity at human histamine H3

Compound	Ki
CSc1ccc(C2CN(C)Cc3cc(Oc4ccnc(CN5CCCCC5)c4)ccc32)cc1 (configuration not stated) [2-methyl-4-(4-(methylthio)phenyl)-7-(2-(piperidin-1-ylmethyl)pyridin-4-yloxy)-1,2,3,4-tetrahydroisoquinoline]	323 nM
CSc1ccc(C2CN(C)Cc3cc(Oc4ccc(CN5CCCCC5)cc4)ccc32)cc1 (configuration not stated) [2-methyl-4-(4-(methylthio)phenyl)-7-(4-(piperidin-1-ylmethyl)phenoxy)-1,2,3,4-tetrahydroisoquinoline]	22.7 nM
CSc1ccc(C2CN(C)Cc3cc(Oc4ccc(CN5CCCCC5)cn4)ccc32)cc1 (configuration not stated) [2-methyl-4-(4-(methylthio)phenyl)-7-(5-(piperidin-1-ylmethyl)pyridin-2-yloxy)-1,2,3,4-tetrahydroisoquinoline]	8.2 nM
CSc1ccc(C2CN(C)Cc3cc(Oc4nc(CN5CCCCC5)cs4)ccc32)cc1 (configuration not stated) [2-methyl-4-(4-(methylthio)phenyl)-7-(4-(piperidin-1-ylmethyl)thiazol-2-yloxy)-1,2,3,4-tetrahydroisoquinoline]	20.7 nM
CSc1ccc(C2CN(C)Cc3cc(Oc4ccc(CN5CCOCC5)cn4)ccc32)cc1 (configuration not stated) [2-methyl-4-(4-(methylthio)phenyl)-7-(5-(morpholinomethyl)pyridin-2-yloxy)-1,2,3,4-tetrahydroisoquinoline]	260 nM
CSc1ccc(C2CN(C)Cc3cc(Oc4nc(CN5CCOCC5)cs4)ccc32)cc1 (configuration not stated) [2-methyl-4-(4-(methylthio)phenyl)-7-(4-(morpholinomethyl)thiazol-2-yloxy)-1,2,3,4-tetrahydroisoquinoline]	201 nM
CSc1ccc(C2CN(C)Cc3cc(Oc4cccc(CN5CCCCC5)n4)ccc32)cc1 (configuration not stated) [2-methyl-4-(4-(methylthio)phenyl)-7-(6-(piperidin-1-ylmethyl)pyridin-2-yloxy)-1,2,3,4-tetrahydroisoquinoline]	51 nM
CSc1ccc(C2CN(C)Cc3cc(Oc4ccc(CN5CCC(F)CC5)cn4)ccc32)cc1 (configuration not stated) [7-(5-((4-fluoropiperidin-1-yl)methyl)pyridin-2-yloxy)-2-methyl-4-(4-(methylthio)phenyl)-1,2,3,4-tetrahydroisoquinoline]	110 nM
CSc1ccc(C2CN(C)Cc3cccc(Oc4ccnc(CN5CCCCC5)c4)c32)cc1 (configuration not stated) [2-methyl-4-(4-(methylthio)phenyl)-5-(2-(piperidin-1-ylmethyl)pyridin-4-yloxy)-1,2,3,4-tetrahydroisoquinoline]	265 nM
CN(C)CCC(Oc1ccccc1)c1ccc(OCCCN2CCCCC2)cc1 (configuration not stated) [N,N-dimethyl-3-phenoxy-3-(4-(3-(piperidin-1-yl)propoxy)phenyl)propan-1-amine]	0.72 nM
CSc1ccc(C2CN(C)Cc3cc(Oc4ncc(CN5CCCCC5)s4)ccc32)cc1 (configuration not stated) [2-methyl-4-(4-(methylthio)phenyl)-7-(5-(piperidin-1-ylmethyl)thiazol-2-yloxy)-1,2,3,4-tetrahydroisoquinoline]	20.7 nM
COc1ccc(C2CN(C)Cc3cc(OCCCN4CCCCC4)ncc32)cc1 (configuration not stated) [4-(4-methoxyphenyl)-2-methyl-7-(3-(piperidin-1-yl)propoxy)-1,2,3,4-tetrahydro-2,6-naphthyridine]	12 nM
CSc1ccc(C2CN(C)Cc3cccc(Oc4cccc(CN5CCCCC5)c4)c32)cc1 (configuration not stated) [2-methyl-4-(4-(methylthio)phenyl)-5-(3-(piperidin-1-ylmethyl)phenoxy)-1,2,3,4-tetrahydroisoquinoline]	253 nM
CSc1ccc(C2CN(C)Cc3cccc(Oc4cncc(CN5CCCCC5)c4)c32)cc1 (configuration not stated) [2-methyl-4-(4-(methylthio)phenyl)-5-(5-(piperidin-1-ylmethyl)pyridin-3-yloxy)-1,2,3,4-tetrahydroisoquinoline]	511 nM
CSc1ccc(C2CN(C)Cc3cc(Oc4cncc(CN5CCCCC5)c4)ccc32)cc1 (configuration not stated) [2-methyl-4-(4-(methylthio)phenyl)-7-(5-(piperidin-1-ylmethyl)pyridin-3-yloxy)-1,2,3,4-tetrahydroisoquinoline]	109 nM
CSc1ccc(C2CN(C)Cc3cc(Oc4ccc(CN5CCCCC5)nc4)ccc32)cc1 (configuration not stated) [2-methyl-4-(4-(methylthio)phenyl)-7-(6-(piperidin-1-ylmethyl)pyridin-3-yloxy)-1,2,3,4-tetrahydroisoquinoline]	24.3 nM
CSc1ccc(C2CN(C)Cc3cc(Oc4cc(CN5CCCCC5)ccn4)ccc32)cc1 (configuration not stated) [2-methyl-4-(4-(methylthio)phenyl)-7-(4-(piperidin-1-ylmethyl)pyridin-2-yloxy)-1,2,3,4-tetrahydroisoquinoline]	34.3 nM
